Laboratory results reported in ChEMBL document CHEMBL5244275, “Geminal Diheteroatomic Motifs: Some Applications of Acetals, Ketals, and Their Sulfur and Nitrogen Homologues in Medicinal Chemistry and Drug Design” (J Med Chem, 2021).
Values after ≈ are worked out from the molar mass of the structure shown.

Tests used:
Plasmodium falciparum = test: Antiplasmodial activity against Plasmodium falciparum W2 assessed as inhibition of parasite growth; type: functional, organism-based
[1] = Oral bioavailability in mouse; type: ADME, organism-based; conditions: in vivo
[2] = Stability of the compound at pH 2 assessed as half-life; type: physicochemical; conditions: buffer
[3] = Half-life in iv dosed rat plasma; type: ADME, organism-based
[4] = biological target: Polymerase acidic protein (Influenza A virus (A/Puerto Rico/8/1934(H1N1)), UniProt P03433); test: Inhibition of Influenza A virus CEN
MAP kinase p38 = MAP kinase p38 (Homo sapiens, UniProt O15264+Q15759+Q16539+P53778); test: Inhibition of p38-MAPK (unknown origin); type: protein assay
[5] = Oral bioavailability in rat; type: ADME, organism-based; conditions: in vivo
Mus musculus [6] = test: Antiinflammatory activity in LPS-induced Balb/c mouse model assessed as reduction in TNF-alpha release administered orally for 30 mins followed by LPS-stimulation and measured after 90 mins by ELISA analysis; type: functional; conditions: 2 h, route po, time 120 min
[7] = Stability of the compound assessed as compound hydrolysis by measuring rate constant; type: physicochemical
[8] = Antiplatelet activity in human platelet rich plasma assessed as platelet aggregation; type: functional, cell-free
[9] = Oral bioavailability in human; type: ADME, organism-based; conditions: in vivo
CCRF-CEM = test: Anticancer activity against human CCRF-CEM cells; type: functional, cell-based
[10] = Drug excretion in human urine assessed as unchanged drug excreted; type: ADME; conditions: read-out: Drug excretion
Mus musculus [11] = test: Anticonvulsant activity in MES induced mouse model of seizure at 10 mg/kg, po measured after 4 hrs relative to control; type: functional
[12] = Half-life in human plasma; type: ADME
Mus musculus [13] = species: Mus musculus; test: Analgesic activity in mouse assessed as protection against phenylbenzoquinone-induced writhing; type: functional
[14] = Antiplasmodial activity against Plasmodium berghei NK 173 infected in ICR (CD-1) mouse assessed as inhibition of parasite growth administered intraperitoneally for four days; conditions: NK 173, 96 h
[15] = Half-life in po dosed rat; type: ADME, organism-based; conditions: in vivo
[16] = Drug degradation in citrate buffer at pH 8.5 measured after 18 hrs; type: physicochemical; conditions: read-out: Drug degradation
[17] = Drug degradation in citrate buffer at pH 4 measured after 18 hrs; type: physicochemical; conditions: read-out: Drug degradation
[18] = Dissociation constant, pKa of the compound; type: physicochemical
[19] = Solubility of the compound at pH 7.4; type: physicochemical; conditions: buffer
[20] = Stability of the compound at pH 7.4 aqueous phosphate buffer assessed as half-life; type: physicochemical
[21] = biological target: Sodium-dependent serotonin transporter (Homo sapiens, UniProt P31645); test: Inhibition of SERT (unknown origin)
Chain of Sodium-dependent serotonin transporter (P31645 whole entry): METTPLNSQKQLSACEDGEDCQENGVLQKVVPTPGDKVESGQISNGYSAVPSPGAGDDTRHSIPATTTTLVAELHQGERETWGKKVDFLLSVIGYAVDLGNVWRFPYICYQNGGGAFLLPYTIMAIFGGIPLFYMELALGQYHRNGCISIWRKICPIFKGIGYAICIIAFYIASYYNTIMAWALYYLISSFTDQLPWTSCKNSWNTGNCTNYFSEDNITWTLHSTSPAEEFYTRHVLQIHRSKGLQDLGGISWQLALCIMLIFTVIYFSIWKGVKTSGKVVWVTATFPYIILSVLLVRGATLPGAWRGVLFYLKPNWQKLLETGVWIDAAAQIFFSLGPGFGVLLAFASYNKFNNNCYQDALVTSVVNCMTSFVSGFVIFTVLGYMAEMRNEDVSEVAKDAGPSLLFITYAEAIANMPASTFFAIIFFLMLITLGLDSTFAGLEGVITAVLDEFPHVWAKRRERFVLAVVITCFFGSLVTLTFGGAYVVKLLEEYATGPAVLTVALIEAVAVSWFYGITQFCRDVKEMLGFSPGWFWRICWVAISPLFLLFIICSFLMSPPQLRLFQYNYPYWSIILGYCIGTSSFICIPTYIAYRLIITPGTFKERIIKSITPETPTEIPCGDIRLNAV

[22] = biological target: Sodium-dependent dopamine transporter (Homo sapiens, UniProt Q01959); test: Inhibition of dopamine transporter (unknown origin)
Chain of Sodium-dependent dopamine transporter (Q01959 whole entry): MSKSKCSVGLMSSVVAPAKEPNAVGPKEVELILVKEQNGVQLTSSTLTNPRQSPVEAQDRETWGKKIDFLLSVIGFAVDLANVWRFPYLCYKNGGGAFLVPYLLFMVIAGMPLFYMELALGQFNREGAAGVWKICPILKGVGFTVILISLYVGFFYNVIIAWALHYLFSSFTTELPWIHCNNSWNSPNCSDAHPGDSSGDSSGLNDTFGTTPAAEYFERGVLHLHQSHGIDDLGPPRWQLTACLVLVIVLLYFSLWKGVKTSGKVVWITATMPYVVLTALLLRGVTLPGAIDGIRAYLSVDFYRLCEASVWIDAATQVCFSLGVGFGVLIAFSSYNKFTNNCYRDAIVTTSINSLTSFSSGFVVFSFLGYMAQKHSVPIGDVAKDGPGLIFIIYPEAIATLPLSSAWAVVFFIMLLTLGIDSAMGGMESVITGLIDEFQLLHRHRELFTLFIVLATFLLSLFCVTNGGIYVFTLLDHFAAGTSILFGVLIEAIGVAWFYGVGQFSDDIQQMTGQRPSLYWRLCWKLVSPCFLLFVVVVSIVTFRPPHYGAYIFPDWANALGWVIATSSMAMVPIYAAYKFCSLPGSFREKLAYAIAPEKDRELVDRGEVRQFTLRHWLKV

Substance-P receptor = Substance-P receptor (Homo sapiens, UniProt P25103); test: Displacement of [125I]-labeled SP from human NK-1 receptor expressed in CHO cells at 1 uM relative to control; type: cell-based; conditions: filed as antagonist
Chain of Substance-P receptor (P25103 whole entry): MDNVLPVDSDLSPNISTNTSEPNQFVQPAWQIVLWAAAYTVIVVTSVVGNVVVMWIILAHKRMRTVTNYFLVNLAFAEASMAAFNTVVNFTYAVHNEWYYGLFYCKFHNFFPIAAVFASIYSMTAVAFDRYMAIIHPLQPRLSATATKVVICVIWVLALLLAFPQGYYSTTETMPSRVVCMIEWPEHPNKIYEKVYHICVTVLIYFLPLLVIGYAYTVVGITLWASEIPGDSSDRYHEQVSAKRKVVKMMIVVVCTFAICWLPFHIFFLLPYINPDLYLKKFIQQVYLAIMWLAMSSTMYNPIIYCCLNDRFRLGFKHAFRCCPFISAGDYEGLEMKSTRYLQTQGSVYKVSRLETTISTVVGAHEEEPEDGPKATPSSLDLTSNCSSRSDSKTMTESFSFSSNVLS

Mus musculus [23] = test: Ex vivo inhibition of FAAH in po dosed mouse brain assessed as drug concentration required to inhibit [3H]ethanolamine degradation; type: functional; conditions: read-out: ID50 (the source's name)
Mus musculus [24] = test: Ex vivo inhibition of FAAH in ip dosed mouse brain assessed as drug concentration required to inhibit [3H]ethanolamine degradation; type: functional; conditions: read-out: ID50 (the source's name)
Mus musculus [25] = test: Anticonvulsant activity in MES induced mouse model of seizure at 75 mg/kg, po measured after 4 hrs relative to control; type: functional
Candida albicans [26] = test: Antifungal activity against Candida albicans GS; type: functional, organism-based
[27] = Clearance in Chimpanzee at 0.5 mg/kg, iv bolus injection; type: ADME, organism-based, Pan troglodytes; conditions: in vivo
Candida albicans [28] = test: Fungicidal activity against Candida albicans; type: functional
[29] = Clearance in Chimpanzee at 0.5 mg/kg administered as iv infusion; type: ADME, organism-based, Pan troglodytes; conditions: in vivo
[30] = Drug concentration in rat plasma at 10 mg/kg, po measured after 90 mins; type: ADME, organism-based
[31] = Bioavailability in rat at 0.5 mg/kg, iv measured after 30 mins by LC-MS/MS analysis; type: ADME, organism-based; conditions: in vivo
PXR (NR1I2) = PXR (NR1I2) (Homo sapiens, UniProt O75469); test: Activation of PXR (unknown origin) in human DPX2 cells assessed as maximal efficacy at 15 uM relative to control; type: cell-based
Chain of PXR (NR1I2) (O75469 whole entry): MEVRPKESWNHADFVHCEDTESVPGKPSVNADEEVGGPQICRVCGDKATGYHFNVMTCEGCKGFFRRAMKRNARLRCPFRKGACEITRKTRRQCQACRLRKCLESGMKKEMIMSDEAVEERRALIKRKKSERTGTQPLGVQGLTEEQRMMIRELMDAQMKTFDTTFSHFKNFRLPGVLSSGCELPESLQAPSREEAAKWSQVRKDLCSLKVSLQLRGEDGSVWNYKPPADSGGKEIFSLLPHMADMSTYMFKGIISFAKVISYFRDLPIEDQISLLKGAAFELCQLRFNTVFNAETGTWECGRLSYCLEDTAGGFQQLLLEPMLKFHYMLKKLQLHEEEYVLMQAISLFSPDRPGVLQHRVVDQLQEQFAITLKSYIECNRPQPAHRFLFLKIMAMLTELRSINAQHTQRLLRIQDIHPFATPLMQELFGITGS

[32] = test system: Human immunodeficiency virus 1; test: Selectivity index, ratio of EC50 for antiviral activity against HIV-1 G140S/Q148R mutant to EC50 for antiviral activity against wild-type HIV-1; type: functional
[33] = Half-life in human; type: ADME
[34] = Unbound fraction in human plasma; type: ADME, cell-free
[35] = Solubility of the compound at pH 7 incubated for 12 hrs by UPLC analysis; type: physicochemical; conditions: buffer, pH 7, 12 h
[36] = test system: Human immunodeficiency virus 1; test: Antiviral activity against HIV1 infected in human MT4 cells assessed as inhibition of viral replication; type: functional, organism-based; conditions: Human immunodeficiency virus 1, MT4
[37] = Bioavailability in dog at 1 mg/kg, iv measured after 30 mins by LC-MS/MS analysis; type: ADME, organism-based, Canis lupus familiaris; conditions: in vivo

C[C@@H]1CC[C@H]2[C@@H](C)[C@](O)(C(F)(F)F)O[C@@H]3O[C@@]4(C)CC[C@@H]1[C@]32OO4
IC50 (Plasmodium falciparum): 2.6 nM
bioavailability [1]: 28%
half-life [2]: 31.7 days
half-life [3]: 86 min

COC(=O)OCOc1c2n(ccc1=O)N([C@@H]1c3ccccc3SCc3c1ccc(F)c3F)[C@@H]1COCCN1C2=O [BALOXAVIR MARBOXIL]
IC50 [4]: 530 nM

C[C@]1(NC(=O)c2ccccc2)CO[C@H](c2nc(-c3ccncc3)c(-c3ccc(F)cc3)[nH]2)OC1
IC50 (MAP kinase p38): 44 nM
bioavailability [5]: 64%
ED50 (Mus musculus [6]): 10 mg/kg

CCCCC[C@H](O)/C=C/[C@H]1O[C@H]2C[C@H](O2)[C@@H]1C/C=C\CCCC(=O)O
K [7]: 5.5 10^5/M/s
EC50 [8]: 162 nM

Nc1nc(Cl)nc2c1ncn2[C@@H]1O[C@H](CO)[C@@H](O)[C@@H]1F [CLOFARABINE]
bioavailability [9]: 57%
IC50 (CCRF-CEM): 60 nM

CC1(C)O[C@@H]2[C@@H](CO[C@@]3(COS(N)(=O)=O)OC(C)(C)O[C@@H]23)O1 [TOPIRAMATE]
dose excreted [10]: 70%
bioavailability [9]: 80%
Activity (Mus musculus [11]): 80%
half-life [12]: 1260 min

c1ccc([C@@]23OC[C@@H](CCn4c2nc2ccccc24)O3)cc1
ED50 (Mus musculus [13]): 100 mg/kg

CO[C@@]1(C(F)(F)F)O[C@@H]2O[C@@]3(C)CC[C@H]4[C@H](C)CC[C@@H]([C@H]1C)[C@@]24OO3
half-life [2]: 27.5 days
ED50 [14]: 3.4 µmol/kg

CC(C)(N)CNC(=O)CC1CCC2(CC1)OOC1(O2)C2CC3CC(C2)CC1C3 (stereo unspecified)
bioavailability [5]: 35%
half-life [15]: 60 min

CC(=O)NC[C@H]1CN(c2ccc(N3CCOCC3)c(F)c2)C(=O)O1 [LINEZOLID]
degraded at 18 h [16]: 40%
degraded at 18 h [17]: < 1%
pKa [18]: < 6

Nc1nc2c(ncn2COCCO)c(=O)[nH]1 [ACYCLOVIR]
solubility [19]: 2500 µg/mL (≈ 11100 µM)

C[C@]1(NC(=O)N2CCOCC2)CO[C@H](c2nc(-c3ccncc3)c(-c3ccc(F)cc3)[nH]2)OC1
IC50 (MAP kinase p38): 50 nM
bioavailability [5]: 50%
ED50 (Mus musculus [6]): < 10 mg/kg

CCCCC[C@H](O)/C=C/[C@H]1O[C@@H]2O[C@H]([C@@H]1C/C=C\CCCC(=O)O)C2(F)F
half-life [20]: 322 days
EC50 [8]: 36 nM

COC(=O)[C@H]1[C@@H](c2ccc(Cl)c(Cl)c2)C[C@@H]2CC[C@H]1O2
IC50 [21]: 4.67 nM
IC50 [22]: 3.27 nM

Fc1ccc([C@@H]2NCCO[C@]23CC[C@@H](c2ccccc2C(F)(F)F)CO3)cc1
Activity (Substance-P receptor): 47%

COC(=O)[C@H]1[C@@H](c2ccc(Cl)c(Cl)c2)C[C@@H]2CC[C@H]1N2C
IC50 [21]: 2 nM
IC50 [22]: 1.1 nM

COc1ccc2c(cccc2[C@H]2CO[C@H](CCCNC(=O)OCC(N)=O)OC2)c1
ED50 (Mus musculus [23]): 0.17 mg/kg
ED50 (Mus musculus [24]): 0.1 mg/kg

CC1(C)O[C@H]2[C@H](O)[C@H](O)CO[C@@]2(COS(N)(=O)=O)O1
Activity (Mus musculus [25]): 40%

CC[C@H](C)C[C@H](C)CCCCCCCCC(=O)N[C@H]1C[C@@H](O)[C@@H](NCCN)NC(=O)[C@@H]2[C@@H](O)CCN2C(=O)[C@H]([C@H](O)CCN)NC(=O)[C@H]([C@H](O)[C@@H](O)c2ccc(O)cc2)NC(=O)[C@@H]2C[C@@H](O)CN2C(=O)[C@H]([C@@H](C)O)NC1=O [CASPOFUNGIN]
IC50 (Candida albicans [26]): 0.6 nM
clearance [27]: 0.26 mL/min/kg
MFC (Candida albicans [28]): 0.125 µg/mL (≈ 0.114 µM)
clearance [29]: 0.21 mL/min/kg

Cc1cc(C)n(CCC[C@H]2CO[C@@H](c3nc(-c4ccccc4)c(-c4ccccc4)[nH]3)OC2)n1
concentration at 1.5 h [30]: 1300 nM

C[C@@H]1CCO[C@H]2Cn3cc(C(=O)NCc4ccc(F)cc4F)c(=O)c(O)c3C(=O)N12 [DOLUTEGRAVIR]
bioavailability [31]: 52%
Emax at 15 µM (PXR (NR1I2)): 51%
Ratio EC50 [32]: 4.8
half-life [33]: 840 min
Fu [34]: 0.7%
solubility [35]: 53 µg/mL (≈ 126 µM)
EC50 [36]: 1.7 nM
bioavailability [37]: 17%
